System: P300/CBP
Test: P300/CBP cellular protein degradation
Format: cell-based
Protocol: Cultured cells were washed with cold PBS once and lysed in cold RIPA buffer supplemented with protease inhibitors and phosphatase inhibitors (Beyotime Biotechnology). The solutions were then incubated at 4° C. for 30 min with gentle agitation to fully lysed cells. Cell lysates were centrifuged at 13,000 rpm for 10 min at 4° C. and pellets were discarded. Total protein concentrations in the lysates were determined following BCA assays (Beyotime Biotechnology). Cell lysates were mixed with Laemmli loading buffer and heated at 99° C. for 5 min. Proteins were resolved on SDS-PAGE and visualized using Western ECL Substrate kits on a ChemiDoc MP Imaging system (Bio-Rad). Protein bands were quantitated using the Image Lab software provided by Bio-Rad.

Row | SMILES | P300/CBP Degradation (100 nM)
1 | CC(=O)N1CCc2c(c(N3CCCc4cc(-c5cnn(C)c5)c(C(F)F)cc43)nn2C2CCN(CC(=O)NCCNc3ccc(C(=O)Nc4ncc(C)s4)c(C)c3)CC2)C1 [CPD-189, 4-((2-(2-(4-(5-Acetyl-3-(7-(difluoromethyl)-6-(1-methyl-1H-pyrazol-4-yl)-3,4-dihydroquinolin-1(2H)-yl)-4,5,6,7-tetrahydro-1H-pyrazolo[4,3-c]pyridin-1-yl)piperidin-1-yl)acetamido)ethyl)amino)-2-methyl-N-(5-methylthiazol-2-yl)benzamide] | D (degradation activity < 30%)
2 | CC(=O)N1CCc2c(c(N3CCCc4cc(-c5cnn(C)c5)c(C(F)F)cc43)nn2C2CCN(CC(=O)NCCCCCNc3ccc(C(=O)Nc4ncc(C)s4)c(C)c3)CC2)C1 [CPD-192, 4-((5-(2-(4-(5-Acetyl-3-(7-(difluoromethyl)-6-(1-methyl-1H-pyrazol-4-yl)-3,4-dihydroquinolin-1(2H)-yl)-4,5,6,7-tetrahydro-1H-pyrazolo[4,3-c]pyridin-1-yl)piperidin-1-yl)acetamido)pentyl)amino)-2-methyl-N-(5-methylthiazol-2-yl)benzamide] | D (degradation activity < 30%)
3 | CC(=O)N1CCc2c(c(N3CCCc4cc(-c5cnn(C)c5)c(C(F)F)cc43)nn2C2CCN(CC(=O)NCCCCCCNc3ccc(C(=O)Nc4ncc(C)s4)c(C)c3)CC2)C1 [CPD-193, 4-((6-(2-(4-(A-Acetyl-3-(7-(difluoromethyl)-6-(1-methyl-1H-pyrazol-4-yl)-3,4-dihydroquinolin-1(2H)-yl)-4,5,6,7-tetrahydro-1H-pyrazolo[4,3-c]pyridin-1-yl)piperidin-1-yl)acetamido)hexyl)amino)-2-methyl-N-(5-methylthiazol-2-yl)benzamide] | D (degradation activity < 30%)
4 | CC(=O)N1CCc2c(c(N3CCCc4cc(-c5cnn(C)c5)c(C(F)F)cc43)nn2C2CCN(CC(=O)NCCCCCCCNc3ccc(C(=O)Nc4ncc(C)s4)c(C)c3)CC2)C1 [CPD-194, 4-((7-(2-(4-(5-Acetyl-3-(7-(difluoromethyl)-6-(1-methyl-1H-pyrazol-4-yl)-3,4-dihydroquinolin-1(2H)-yl)-4,5,6,7-tetrahydro-1H-pyrazolo[4,3-c]pyridin-1-yl)piperidin-1-yl)acetamido)heptyl)amino)-2-methyl-N-(5-methylthiazol-2-yl)benzamide] | D (degradation activity < 30%)
5 | CC(=O)N1CCc2c(c(N3CCCc4cc(-c5cnn(C)c5)c(C(F)F)cc43)nn2C2CCN(CC(=O)NCCCCCCCCNc3ccc(C(=O)Nc4ncc(C)s4)c(C)c3)CC2)C1 [CPD-195, 4-((8-(2-(4-(5-Acetyl-3-(7-(difluoromethyl)-6-(1-methyl-1H-pyrazol-4-yl)-3,4-dihydroquinolin-1(2H)-yl)-4,5,6,7-tetrahydro-1H-pyrazolo[4,3-c]pyridin-1-yl)piperidin-1-yl)acetamido)octyl)amino)-2-methyl-N-(5-methylthiazol-2-yl)benzamide] | D (degradation activity < 30%)
6 | CC(=O)N1CCc2c(c(N3CCCc4cc(-c5cnn(C)c5)c(C(F)F)cc43)nn2C2CCN(CC(=O)NCCCCCCCCCNc3ccc(C(=O)Nc4ncc(C)s4)c(C)c3)CC2)C1 [CPD-196, 4-((9-(2-(4-(5-Acetyl-3-(7-(difluoromethyl)-6-(1-methyl-1H-pyrazol-4-yl)-3,4-dihydroquinolin-1(2H)-yl)-4,5,6,7-tetrahydro-1H-pyrazolo[4,3-c]pyridin-1-yl)piperidin-1-yl)acetamido)nonyl)amino)-2-methyl-N-(5-methylthiazol-2-yl)benzamide] | D (degradation activity < 30%)

— US20250235543A1, “MODIFIED PROTEINS AND PROTEIN DEGRADERS” (Cullgen (Shanghai), Inc., priority 2021, published 2025)
